ChEMBL document CHEMBL4340517, “Synthesis and biological evaluation of 7-substituted cycloberberine derivatives as potent antibacterial agents against MRSA” (2019)
The source made the active and inactive calls. No cut-off for these calls is given here.

Key:
[1] = test system: Staphylococcus aureus; test: Antibacterial activity against methicillin-sensitive Staphylococcus aureus ATCC 29213 after 18 hrs by agar dilution method; type: functional; settings: ATCC 29213, 18 h
[2] = test system: Staphylococcus aureus; test: Antibacterial activity against methicillin-resistant Staphylococcus aureus ATCC 33591 after 18 hrs by agar dilution method; type: functional; settings: ATCC 33591, 18 h
[3] = test system: Staphylococcus aureus; test: Antibacterial activity against VAN-intermediate Staphylococcus aureus ATCC 700698 after 18 hrs by agar dilution method; type: functional; settings: ATCC 700698, 18 h
[4] = test system: Staphylococcus epidermidis; test: Antibacterial activity against methicillin-resistant Staphylococcus epidermidis 13-3 after 18 hrs by agar dilution method; type: functional; settings: 13-3, 18 h
[5] = test system: Enterococcus faecalis; test: Antibacterial activity against VAN-sensitive Enterococcus faecalis ATCC 29212 after 18 hrs by agar dilution method; type: functional; settings: ATCC 29212, 18 h
[6] = test system: Enterococcus faecalis; test: Antibacterial activity against VAN-resistant Enterococcus faecalis ATCC 51299 after 18 hrs by agar dilution method; type: functional; settings: ATCC 51299, 18 h
[7] = test system: Enterococcus faecium; test: Antibacterial activity against VAN-resistant Enterococcus faecium ATCC 700221 after 18 hrs by agar dilution method; type: functional; settings: ATCC 700221, 18 h
[8] = test system: Staphylococcus aureus; test: Antibacterial activity against methicillin-resistant Staphylococcus aureus 18-4 after 18 hrs by agar dilution method; type: functional; settings: 18-4, 18 h
[9] = test system: Staphylococcus aureus; test: Bactericidal activity against methicillin-resistant Staphylococcus aureus 18-4 assessed as reduction in bacterial growth at 2 to 32 times MIC measured within 8 hrs by time kill assay relative to control; type: functional
[10] = test system: Staphylococcus aureus; test: Bactericidal activity against methicillin-resistant Staphylococcus aureus 18-4 assessed as reduction in bacterial growth at 2 times MIC measured after 24 hrs by time kill assay relative to control; type: functional
[11] = test system: Staphylococcus aureus; test: Bactericidal activity against methicillin-resistant Staphylococcus aureus 18-4 assessed as reduction in bacterial growth at 8 times MIC measured within 2 hrs by time kill assay relative to control; type: functional
[12] = molecular target: Topoisomerase IV (Staphylococcus aureus) (UniProt P0C1U9+P0C1S7); test: Inhibition of methicillin-resistant Staphylococcus aureus topoisomerase-4 assessed as reduction in DNA decatenation at 2.5 to 5 ug/ml using super coiled pBR322 plasmid DNA as substrate measured after 30 mins by agarose gel electrophoresis method relative to control; type: protein-complex assay

COc1ccc2c(c1OC)c(C1CC1)[n+]1c3c2ccc2c4c(cc(c23)CC1)OCO4.[Br-] was tested, and the MIC [1] was 8 µg/mL, the MIC [2] was 16 µg/mL and the MIC [3] was 16 µg/mL. It also gave an MIC [4] of 8 µg/mL, an MIC [5] of 16 µg/mL and an MIC [6] of 16 µg/mL. For the same compound, the MIC [7] was 16 µg/mL.
COc1cc2c3c(ccc4c5ccc(OC)c(OC)c5c(-c5ccc6c(c5)OCO6)[n+](c43)CC2)c1OC.[Br-] showed an MIC [1] of 4 µg/mL, an MIC [2] of 8 µg/mL and an MIC [3] of 32 µg/mL. For the same compound, the MIC [4] was 2 µg/mL, the MIC [5] was 32 µg/mL and the MIC [6] was 32 µg/mL. It also gave an MIC [7] of over 128 µg/mL.
With COc1ccc2c(c1OC)c(-c1ccccc1)[n+]1c3c2ccc2c4c(cc(c23)CC1)OCO4.[Br-] the MIC [1] was 1 µg/mL, the MIC [2] was 4 µg/mL and the MIC [3] was 8 µg/mL. It also gave an MIC [4] of 1 µg/mL, an MIC [5] of 4 µg/mL and an MIC [6] of 4 µg/mL. The MIC [7] was 4 µg/mL, the MIC [8] was 1 µg/mL and the “growth inhibition (GI)” value [9] was over 90%. For the same compound, the “growth inhibition (GI)” value [10] was 99.99%, the “growth inhibition (GI)” value [11] was 100% and the inhibition [12] was “Active”.
CCCCc1cc2c3ccc(OC)c(OC)c3c(-c3ccc(Cl)cc3)[n+]3c2c2c(cc4c(c12)OCO4)CC3.[Br-] showed an MIC [1] of 1 µg/mL, an MIC [2] of 1 µg/mL and an MIC [3] of 32 µg/mL. The MIC [4] was 1 µg/mL, the MIC [5] was 1 µg/mL and the MIC [6] was 2 µg/mL. It also gave an MIC [7] of 1 µg/mL.
Work on CCc1c2c(OC)c(OC)ccc2c2ccc3c4c(cc5c3c2[n+]1CC5)OCO4.[Br-] yielded an MIC [1] of 4 µg/mL, an MIC [2] of 16 µg/mL and an MIC [3] of 64 µg/mL. For the same compound, the MIC [4] was 4 µg/mL, the MIC [5] was 16 µg/mL and the MIC [6] was 16 µg/mL. The MIC [7] was 8 µg/mL.
In the case of CCCCc1cc2c3ccc(OC)c(OC)c3c(-c3ccccc3)[n+]3c2c2c(cc4c(c12)OCO4)CC3.[Br-], the MIC [1] is reported as 1 µg/mL, the MIC [2] is reported as 2 µg/mL and the MIC [3] is reported as 32 µg/mL. For the same compound, the MIC [4] was 1 µg/mL, the MIC [5] was 2 µg/mL and the MIC [6] was 4 µg/mL. The MIC [7] was 1 µg/mL.
C=Cc1c2c(OC)c(OC)ccc2c2cc(CC)c3c4c(cc5c3c2[n+]1CC5)OCO4.[Br-] showed an MIC [1] of 1 µg/mL, an MIC [2] of 2 µg/mL and an MIC [3] of 32 µg/mL. The MIC [4] was 1 µg/mL, the MIC [5] was 2 µg/mL and the MIC [6] was 4 µg/mL. For the same compound, the MIC [7] was 1 µg/mL.
COc1ccc2c(c1OC)c(-c1ccc(Cl)cc1)[n+]1c3c2ccc2c4c(cc(c23)CC1)OCO4.[Br-] gave an MIC [1] of 2 µg/mL, an MIC [2] of 4 µg/mL and an MIC [3] of 8 µg/mL. The MIC [4] was 1 µg/mL, the MIC [5] was 8 µg/mL and the MIC [6] was 8 µg/mL. It also gave an MIC [7] of over 128 µg/mL.
CCCc1cc2c3ccc(OC)c(OC)c3c(-c3ccc(Cl)cc3)[n+]3c2c2c(cc4c(c12)OCO4)CC3.[Br-] showed an MIC [1] of 2 µg/mL, an MIC [2] of 8 µg/mL and an MIC [3] of 32 µg/mL. It also gave an MIC [4] of 4 µg/mL, an MIC [5] of 16 µg/mL and an MIC [6] of 32 µg/mL. It also gave an MIC [7] of over 128 µg/mL.
C=CCc1c2c(OC)c(OC)ccc2c2ccc3c4c(cc5c3c2[n+]1CC5)OCO4.[Br-] gave an MIC [1] of 16 µg/mL, an MIC [2] of 16 µg/mL and an MIC [3] of 16 µg/mL. The MIC [4] was 8 µg/mL, the MIC [5] was 16 µg/mL and the MIC [6] was 16 µg/mL. It also gave an MIC [7] of 16 µg/mL.
CCc1cc2c3ccc(OC)c(OC)c3c(CC(C)C)[n+]3c2c2c(cc4c(c12)OCO4)CC3.[Br-] showed an MIC [1] of 1 µg/mL, an MIC [2] of 4 µg/mL and an MIC [3] of 32 µg/mL. It also gave an MIC [4] of 1 µg/mL, an MIC [5] of 4 µg/mL and an MIC [6] of 8 µg/mL. It also gave an MIC [7] of 2 µg/mL.
In the case of COc1cc2c3c(ccc4c5ccc(OC)c(OC)c5c(-c5ccccc5)[n+](c43)CC2)c1OC.[Br-], the MIC [1] is reported as 4 µg/mL, the MIC [2] is reported as 16 µg/mL and the MIC [3] is reported as 32 µg/mL. It also gave an MIC [4] of 4 µg/mL, an MIC [5] of 32 µg/mL and an MIC [6] of 32 µg/mL. For the same compound, the MIC [7] was over 128 µg/mL.
For COc1ccc2c(c1OC)c(-c1ccc(C)cc1)[n+]1c3c2ccc2c4c(cc(c23)CC1)OCO4.[Br-], the MIC [1] was 8 µg/mL, the MIC [2] was 16 µg/mL and the MIC [3] was 16 µg/mL. The MIC [4] was 8 µg/mL, the MIC [5] was 16 µg/mL and the MIC [6] was 16 µg/mL. The MIC [7] was 16 µg/mL.
